Laboratory results: patent US7063946B2, “Methods, reagents, kits and apparatus for protein function analysis” (Meso Scale Technologies, LLC., priority 2001, dated 2006)

Tests used:
Assay in all cases: Kinase inhibitor profiling, pEY phosphorylation
Format in all cases: biochemical
BMX = biological target: T1, BMX (Homo sapiens, UniProt P51813)
T1 construct: specificity data for proteins generated from a library of eighteen full-length clones; host or cells: rabbit reticulocyte lysate, TnT coupled in vitro transcription/translation (cell-free)
T1 sequence (P51813 1-675): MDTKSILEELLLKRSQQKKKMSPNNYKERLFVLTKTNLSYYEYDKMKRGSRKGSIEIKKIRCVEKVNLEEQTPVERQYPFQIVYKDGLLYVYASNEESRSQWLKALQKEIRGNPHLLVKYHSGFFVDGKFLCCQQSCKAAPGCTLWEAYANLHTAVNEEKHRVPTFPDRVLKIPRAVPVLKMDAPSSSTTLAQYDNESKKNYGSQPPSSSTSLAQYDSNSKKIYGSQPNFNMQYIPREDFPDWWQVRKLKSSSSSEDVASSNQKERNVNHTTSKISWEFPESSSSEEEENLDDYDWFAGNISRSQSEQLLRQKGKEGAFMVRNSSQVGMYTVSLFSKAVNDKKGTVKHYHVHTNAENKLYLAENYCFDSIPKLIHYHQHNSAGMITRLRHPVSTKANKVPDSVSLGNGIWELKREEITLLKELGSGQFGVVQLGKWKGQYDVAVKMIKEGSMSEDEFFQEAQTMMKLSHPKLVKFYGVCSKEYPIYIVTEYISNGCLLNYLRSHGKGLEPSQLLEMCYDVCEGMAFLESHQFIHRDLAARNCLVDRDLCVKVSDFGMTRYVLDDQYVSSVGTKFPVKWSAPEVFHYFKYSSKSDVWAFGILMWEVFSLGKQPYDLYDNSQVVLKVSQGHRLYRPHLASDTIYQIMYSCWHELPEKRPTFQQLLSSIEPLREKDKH

CSK = biological target: T2, CSK (Homo sapiens, UniProt P41240)
T2 construct: specificity data for proteins generated from a library of eighteen full-length clones; host or cells: rabbit reticulocyte lysate, TnT coupled in vitro transcription/translation (cell-free)

Tek = biological target: T3, Tek (Mus musculus, UniProt Q02858)
T3 construct: specificity data for proteins generated from a library of eighteen full-length clones; host or cells: rabbit reticulocyte lysate, TnT coupled in vitro transcription/translation (cell-free)

SYK = biological target: T4, SYK (Homo sapiens, UniProt P43405)
T4 construct: autophosphorylation activity from full-length clones Spleen Tyrosine Kinase (SYK) and Eph receptor-A7 (EphA7); host or cells: rabbit reticulocyte lysate, TnT coupled in vitro transcription/translation (cell-free)

SRC = biological target: T5, SRC (Mus musculus, UniProt P05480)
T5 construct: specificity data for proteins generated from a library of eighteen full-length clones; host or cells: rabbit reticulocyte lysate, TnT coupled transcription/translation

Epha7 = biological target: T6, Epha7 (Mus musculus, UniProt Q61772)
T6 construct: autophosphorylation activity from full-length clones Spleen Tyrosine Kinase (SYK) and Eph receptor-A7 (EphA7); host or cells: rabbit reticulocyte lysate, TnT coupled in vitro transcription/translation (cell-free)

PTK2B = biological target: T7, PTK2B (Homo sapiens, UniProt Q14289)
T7 construct: specificity data for proteins generated from a library of eighteen full-length clones; host or cells: rabbit reticulocyte lysate, TnT coupled in vitro transcription/translation (cell-free)

HCK = biological target: T8, HCK (Homo sapiens, UniProt P08631)
T8 construct: specificity data for proteins generated from a library of eighteen full-length clones; host or cells: rabbit reticulocyte lysate, TnT coupled in vitro transcription/translation (cell-free)
T8 sequence (P08631 whole entry): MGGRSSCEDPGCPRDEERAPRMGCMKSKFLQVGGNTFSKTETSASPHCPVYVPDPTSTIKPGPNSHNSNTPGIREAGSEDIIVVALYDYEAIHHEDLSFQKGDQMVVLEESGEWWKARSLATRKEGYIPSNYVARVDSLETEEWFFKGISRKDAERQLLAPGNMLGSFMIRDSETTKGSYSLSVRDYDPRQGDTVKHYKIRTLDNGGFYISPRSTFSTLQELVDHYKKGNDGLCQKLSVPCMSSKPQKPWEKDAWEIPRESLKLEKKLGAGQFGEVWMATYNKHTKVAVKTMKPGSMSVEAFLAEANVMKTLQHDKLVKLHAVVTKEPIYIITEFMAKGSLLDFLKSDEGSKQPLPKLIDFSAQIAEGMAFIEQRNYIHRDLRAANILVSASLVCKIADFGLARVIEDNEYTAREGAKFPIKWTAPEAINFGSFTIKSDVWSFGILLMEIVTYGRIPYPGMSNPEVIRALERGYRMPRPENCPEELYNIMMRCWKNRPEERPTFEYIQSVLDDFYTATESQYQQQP

T7 sequence (Q14289 whole entry): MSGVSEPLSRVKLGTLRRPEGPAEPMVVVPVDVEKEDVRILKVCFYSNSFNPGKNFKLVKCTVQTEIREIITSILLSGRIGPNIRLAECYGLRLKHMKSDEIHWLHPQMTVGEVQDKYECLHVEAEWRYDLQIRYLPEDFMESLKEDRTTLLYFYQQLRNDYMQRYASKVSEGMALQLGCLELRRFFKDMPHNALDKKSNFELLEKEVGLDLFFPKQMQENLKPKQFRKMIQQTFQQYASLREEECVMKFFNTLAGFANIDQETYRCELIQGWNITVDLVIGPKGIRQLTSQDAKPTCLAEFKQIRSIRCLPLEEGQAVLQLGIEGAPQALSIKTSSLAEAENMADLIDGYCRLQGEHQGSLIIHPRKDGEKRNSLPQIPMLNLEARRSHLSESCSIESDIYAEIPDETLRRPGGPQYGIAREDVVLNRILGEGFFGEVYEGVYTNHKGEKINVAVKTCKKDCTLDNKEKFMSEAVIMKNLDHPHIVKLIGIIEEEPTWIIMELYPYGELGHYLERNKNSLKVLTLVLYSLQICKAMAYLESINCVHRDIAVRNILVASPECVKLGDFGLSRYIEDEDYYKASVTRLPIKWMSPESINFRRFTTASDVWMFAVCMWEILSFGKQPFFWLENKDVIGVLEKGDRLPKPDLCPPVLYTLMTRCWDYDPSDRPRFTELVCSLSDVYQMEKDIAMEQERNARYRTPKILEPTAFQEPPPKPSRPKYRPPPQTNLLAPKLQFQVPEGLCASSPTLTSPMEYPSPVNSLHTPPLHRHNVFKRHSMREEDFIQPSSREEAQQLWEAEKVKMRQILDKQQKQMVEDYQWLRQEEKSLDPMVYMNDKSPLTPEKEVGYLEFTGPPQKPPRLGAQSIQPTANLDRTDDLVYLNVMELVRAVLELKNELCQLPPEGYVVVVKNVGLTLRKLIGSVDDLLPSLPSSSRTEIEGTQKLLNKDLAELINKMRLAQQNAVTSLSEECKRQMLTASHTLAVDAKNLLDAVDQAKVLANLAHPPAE
T5 sequence (P05480 whole entry): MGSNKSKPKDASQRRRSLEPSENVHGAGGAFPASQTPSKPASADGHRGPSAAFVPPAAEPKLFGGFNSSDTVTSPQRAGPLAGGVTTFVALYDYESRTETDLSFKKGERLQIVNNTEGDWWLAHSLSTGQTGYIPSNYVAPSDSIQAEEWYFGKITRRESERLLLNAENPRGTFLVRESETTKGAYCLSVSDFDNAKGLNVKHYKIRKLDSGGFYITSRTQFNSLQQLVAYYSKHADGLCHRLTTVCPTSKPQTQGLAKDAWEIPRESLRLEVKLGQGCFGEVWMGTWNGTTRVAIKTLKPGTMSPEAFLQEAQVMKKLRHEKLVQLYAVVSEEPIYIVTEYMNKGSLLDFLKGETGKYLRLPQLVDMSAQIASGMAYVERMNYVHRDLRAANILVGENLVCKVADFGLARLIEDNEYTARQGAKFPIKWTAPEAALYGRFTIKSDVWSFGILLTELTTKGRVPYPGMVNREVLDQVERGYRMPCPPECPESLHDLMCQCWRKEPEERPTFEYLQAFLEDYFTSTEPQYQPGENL
T3 sequence (Q02858 23-1122): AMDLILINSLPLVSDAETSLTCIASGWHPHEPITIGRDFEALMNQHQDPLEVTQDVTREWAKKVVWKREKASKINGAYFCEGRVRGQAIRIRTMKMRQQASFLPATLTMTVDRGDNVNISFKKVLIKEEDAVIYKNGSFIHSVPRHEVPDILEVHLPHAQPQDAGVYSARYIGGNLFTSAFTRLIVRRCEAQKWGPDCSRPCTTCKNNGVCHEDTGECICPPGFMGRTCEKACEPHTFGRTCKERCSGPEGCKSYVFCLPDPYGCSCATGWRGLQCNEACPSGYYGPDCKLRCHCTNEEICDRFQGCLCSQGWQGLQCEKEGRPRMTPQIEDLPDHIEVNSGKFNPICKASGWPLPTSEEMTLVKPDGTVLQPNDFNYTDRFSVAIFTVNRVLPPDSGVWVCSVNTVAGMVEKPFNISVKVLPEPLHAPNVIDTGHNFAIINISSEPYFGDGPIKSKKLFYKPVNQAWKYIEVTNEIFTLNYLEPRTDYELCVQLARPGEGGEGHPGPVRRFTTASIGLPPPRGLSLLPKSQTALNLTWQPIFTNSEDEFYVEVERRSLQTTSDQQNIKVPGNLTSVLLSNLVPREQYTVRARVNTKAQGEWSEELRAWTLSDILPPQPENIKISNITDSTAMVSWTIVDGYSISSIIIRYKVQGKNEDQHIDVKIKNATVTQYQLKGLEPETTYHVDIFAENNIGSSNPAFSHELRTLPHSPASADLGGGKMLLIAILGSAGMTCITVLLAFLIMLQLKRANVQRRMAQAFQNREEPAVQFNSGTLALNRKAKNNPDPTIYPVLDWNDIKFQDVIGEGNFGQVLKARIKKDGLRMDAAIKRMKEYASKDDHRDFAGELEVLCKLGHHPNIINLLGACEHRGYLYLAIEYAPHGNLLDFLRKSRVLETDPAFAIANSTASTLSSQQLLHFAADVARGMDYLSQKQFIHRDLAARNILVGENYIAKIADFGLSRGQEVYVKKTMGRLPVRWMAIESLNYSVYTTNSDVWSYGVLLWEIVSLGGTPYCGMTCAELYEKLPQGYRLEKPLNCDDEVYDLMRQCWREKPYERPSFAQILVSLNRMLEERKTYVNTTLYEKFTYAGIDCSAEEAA
T6 sequence (Q61772 28-998): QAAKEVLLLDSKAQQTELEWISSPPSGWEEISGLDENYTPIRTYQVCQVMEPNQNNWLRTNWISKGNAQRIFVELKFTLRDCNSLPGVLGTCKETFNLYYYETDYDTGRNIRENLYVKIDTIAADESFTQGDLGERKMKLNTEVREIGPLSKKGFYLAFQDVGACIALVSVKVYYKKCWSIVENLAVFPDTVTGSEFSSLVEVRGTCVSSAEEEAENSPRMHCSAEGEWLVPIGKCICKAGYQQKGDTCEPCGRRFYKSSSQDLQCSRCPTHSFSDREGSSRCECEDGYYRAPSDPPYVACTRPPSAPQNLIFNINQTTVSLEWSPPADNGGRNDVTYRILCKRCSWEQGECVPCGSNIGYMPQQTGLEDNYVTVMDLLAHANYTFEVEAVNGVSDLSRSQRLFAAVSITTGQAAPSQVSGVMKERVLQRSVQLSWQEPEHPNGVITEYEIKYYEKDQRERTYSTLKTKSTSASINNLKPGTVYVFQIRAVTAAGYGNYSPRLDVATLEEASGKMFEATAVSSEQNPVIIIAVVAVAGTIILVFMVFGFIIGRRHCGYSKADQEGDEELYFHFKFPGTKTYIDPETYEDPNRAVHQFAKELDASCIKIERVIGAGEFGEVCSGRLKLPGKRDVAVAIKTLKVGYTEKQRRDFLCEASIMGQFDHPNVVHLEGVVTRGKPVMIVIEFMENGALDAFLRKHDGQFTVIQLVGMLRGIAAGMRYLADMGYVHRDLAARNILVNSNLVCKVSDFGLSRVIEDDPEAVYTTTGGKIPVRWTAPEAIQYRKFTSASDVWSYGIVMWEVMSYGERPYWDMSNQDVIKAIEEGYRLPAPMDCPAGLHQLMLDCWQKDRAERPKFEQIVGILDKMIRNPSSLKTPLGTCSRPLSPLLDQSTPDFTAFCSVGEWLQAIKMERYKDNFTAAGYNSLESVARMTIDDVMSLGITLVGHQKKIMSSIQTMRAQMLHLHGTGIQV
T2 sequence (P41240 whole entry): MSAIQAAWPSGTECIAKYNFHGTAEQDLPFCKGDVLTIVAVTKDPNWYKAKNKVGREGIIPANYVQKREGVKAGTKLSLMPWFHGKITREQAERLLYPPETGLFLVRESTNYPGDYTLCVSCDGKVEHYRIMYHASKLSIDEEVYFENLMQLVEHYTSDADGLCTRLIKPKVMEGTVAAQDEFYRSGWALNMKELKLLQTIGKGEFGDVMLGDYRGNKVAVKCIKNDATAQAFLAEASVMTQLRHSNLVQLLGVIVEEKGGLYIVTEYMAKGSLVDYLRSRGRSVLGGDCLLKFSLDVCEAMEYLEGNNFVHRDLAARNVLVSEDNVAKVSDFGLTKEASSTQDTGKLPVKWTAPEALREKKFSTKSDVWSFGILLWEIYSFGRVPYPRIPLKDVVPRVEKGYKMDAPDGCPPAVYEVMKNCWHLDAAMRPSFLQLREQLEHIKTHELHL

| Structure (SMILES) | Inhibition specificity towards pEY phosphorylation at 10X IC50, BMX (BMX) | Inhibition specificity towards pEY phosphorylation at 10X IC50, CSK (CSK) | Inhibition specificity towards pEY phosphorylation at 10X IC50, Tek (Tek) | Inhibition specificity towards pEY phosphorylation at 10X IC50, SYK (SYK) | Inhibition specificity towards pEY phosphorylation at 10X IC50, Src (SRC) | Inhibition specificity towards pEY phosphorylation at 10X IC50, Epha7 (Epha7) | Inhibition specificity towards pEY phosphorylation at 10X IC50, PTK2B (PTK2B) | Inhibition specificity towards pEY phosphorylation at 10X IC50, HCK (HCK) |
| --- | --- | --- | --- | --- | --- | --- | --- | --- |
| COC(=O)c1ccc(NCc2cc(O)ccc2O)cc1 [AG-957] | L (low inhibition (“L”=between 50–75% of the activity remaining)) | M (medium inhibition (“M”=between 25 to 50% of the activity remaining)) | L (low inhibition (“L”=between 50–75% of the activity remaining)) | – | – | – | – | – |
| CC(C)(C)c1cc(C=C(C#N)C#N)cc(Br)c1O [AG-1024] | – | – | L (low inhibition (“L”=between 50–75% of the activity remaining)) | L (low inhibition (“L”=between 50–75% of the activity remaining)) | – | – | – | – |
| Cc1cc2ncc(-c3ccc(O)c(O)c3)nc2cc1C [AG-1433] | H (high inhibition (“H”=less than 25% of the activity remaining)) | M (medium inhibition (“M”=between 25 to 50% of the activity remaining)) | M (medium inhibition (“M”=between 25 to 50% of the activity remaining)) | M (medium inhibition (“M”=between 25 to 50% of the activity remaining)) | H (high inhibition (“H”=less than 25% of the activity remaining)) | L (low inhibition (“L”=between 50–75% of the activity remaining)) | L (low inhibition (“L”=between 50–75% of the activity remaining)) | M (medium inhibition (“M”=between 25 to 50% of the activity remaining)) |
| COc1c(C=O)c(O)cc2c1C(=O)c1ccccc1C2=O [Damnacanthal] | H (high inhibition (“H”=less than 25% of the activity remaining)) | H (high inhibition (“H”=less than 25% of the activity remaining)) | M (medium inhibition (“M”=between 25 to 50% of the activity remaining)) | H (high inhibition (“H”=less than 25% of the activity remaining)) | H (high inhibition (“H”=less than 25% of the activity remaining)) | H (high inhibition (“H”=less than 25% of the activity remaining)) | H (high inhibition (“H”=less than 25% of the activity remaining)) | H (high inhibition (“H”=less than 25% of the activity remaining)) |
| Cc1ccc(-c2nn(C(C)(C)C)c3ncnc(N)c23)cc1 [PP1] | L (low inhibition (“L”=between 50–75% of the activity remaining)) | – | – | – | – | – | – | – |
| COc1cc2ncnc(Nc3ccc(O)cc3)c2cc1OC [WHI-P131] | L (low inhibition (“L”=between 50–75% of the activity remaining)) | – | L (low inhibition (“L”=between 50–75% of the activity remaining)) | – | L (low inhibition (“L”=between 50–75% of the activity remaining)) | L (low inhibition (“L”=between 50–75% of the activity remaining)) | L (low inhibition (“L”=between 50–75% of the activity remaining)) | L (low inhibition (“L”=between 50–75% of the activity remaining)) |
